Experimental findings from US10953017B2, “Treatment of neurodegenerative diseases, causation of memory enhancement, and assay for screening compounds for such” (Southern Research Institute, priority 2009, dated 2021) are described below.

What is called IC50 is the concentration at which inhibition is half-maximal.

One test deals with SH-5YSY cells. As to the kind of experiment: Blasticidin sensitivity of SH-5YSY cells. The test is classed as cell-based, human.
Details: not given
The text has this: SH-5YSY human neuroblastoma cell line was obtained from the American Tissue Culture collection (ATCC). The cells were expanded and frozen for long term storage. A commercially available expression vector containing the NF-kB promoter enhancer region driving the firefly lucipherase gene expression (see FIG. 1) was obtained. This plasmid was designed for transient expression studies and was devoid of any antibiotic-resistance conferring gene. A second plasmid containing the gene conferring resistance to blasticidin was also used. A dual transfection approach to obtain stable cell lines was employed. Prior to transfection, blasticidin sensitivity of the cell line was performed (See FIG. 2). It was determined that SH-5YSY cells were sensitive to the antibiotic toxicity and that 3 μg/ml caused total cell death (FIG. 2). After expanding and purifying adequate quantities of these plasmids, SH-5YSY cells were co-transfected with the above two plasmids and the clonal selection of the transfected cells in the presence of blasticidin proceeded. […] The optimal conditions for this assay to be carried out in a high throughput setting has been determined. Initially, the optimal number of cells needed was assessed. […] This cell line allows growing large scale quantities of cells fairly easily.
With `CN(CC[C@H](N)CC(=O)N[C@H]1C=C[C@H](n2ccc(N)nc2=O)O[C@@H]1C(=O)O)C(=N)N` [blasticidin], the “concentration causing total cell death” value was found to be 3 µg/mL.

Another test deals with NF-kB. Kind of test: NF-kB promoter-driven firefly luciferase reporter assay in SH-5YSY clone C1. The test is classed as cell-based, human. Conditions: 0.625 up to 40 ng/ml. The text has this: SH-5YSY human neuroblastoma cell line was obtained from the American Tissue Culture collection (ATCC). The cells were expanded and frozen for long term storage. A commercially available expression vector containing the NF-kB promoter enhancer region driving the firefly lucipherase gene expression (see FIG. 1) was obtained. This plasmid was designed for transient expression studies and was devoid of any antibiotic-resistance conferring gene. A second plasmid containing the gene conferring resistance to blasticidin was also used. A dual transfection approach to obtain stable cell lines was employed. Prior to transfection, blasticidin sensitivity of the cell line was performed (See FIG. 2). It was determined that SH-5YSY cells were sensitive to the antibiotic toxicity and that 3 μg/ml caused total cell death (FIG. 2). After expanding and purifying adequate quantities of these plasmids, SH-5YSY cells were co-transfected with the above two plasmids and the clonal selection of the transfected cells in the presence of blasticidin proceeded. Several clones were identified that were both resistant to blasticidin and expressed the firefly luciferase upon exposure to TNF-α, □ a known inducer of NF-kB (See FIG. 3). After several assessments, a clone, C1, which expressed high levels of stimulated-luciferase expression and maintained it over time (see FIG. 3) was identified. To date, this clone has been in culture for over 37 passages without significant decline of the gene of interest induction. The optimal conditions for this assay to be carried out in a high throughput setting has been determined. Initially, the optimal number of cells needed was assessed. In FIG. 4 it is shown the effect of using a range of cells from 10,000 to 40,000. […] The assays has have been implemented using a similar cell density for HTS analysis without excessive problems. This cell line allows growing large scale quantities of cells fairly easily.
Successively, the optimal time of incubation and media requirements were assessed. […] These conditions are relatively affordable in HTS settings. Finally, since during robotic handling the plates containing the cells spend a significant amount of time outside the incubator and since phenol red could interfere with the reagents in the luciferase activity assay kit, the effect of using a phenol red free HEPES-buffered media was assessed. As shown in FIG. 5 there is a very little effect of phenol red free, HEPES-buffered media on the assay response and dynamic range. Therefore, the assessment is that it is possible to run this assay using these more forgiving media. Since the compounds contained in the most commonly used libraries are dissolved in DMSO, the effect of DMSO on both luciferase expression in response to TNF-α and C1 clone survival during assay simulations was characterized. The effect of increasing concentration of DMSO ranging from 0.05% through 0.5% on TNF-α induction of luciferase (black line and black scale) is shown in FIG. 6. Also the effect of DMSO on baseline expression of luciferase in the C1 clone is shown in FIG. 6 (gray line and gray scale). In FIG. 7, it is shown the effect of DMSO on cell survival in the same conditions described in FIG. 6. In these experimental settings cells, settled for 24 hours, and then were incubated for an additional 24 hours with DMSO at the indicated concentrations. At the end of the incubation phase cell viability was assessed using the commercially available kit Cell Titer Glo™ following the manufacturer instructions ([…]). […] Finally, the effect of different concentrations of TNF-α was studied in the clone C1.
Essential to development of an assay for high throughput screening is the assessment of Z′ values. This statistical parameter assesses the possibility that data obtained in a single well are statistically significant. In general, assays can generate negative and positive Z′ values. Negative Z′ values indicate a very unpredictable assay. […]
TNF-α [reference compound]: the “luciferase expression in C1 cells” value is listed as “linear increase”.

The same test, now with this note: Homo sapiens; SH-5YSY clone C1, NF-kB luciferase reporter.
For `Cc1ccc2nc(-c3ccc(NS(=O)(=O)c4ccccc4OC(F)(F)F)cc3)sc2c1` [AB00003451], the IC50 came to 0.156 µM. Compound `Cc1ccc2nc(-c3ccc(NS(=O)(=O)c4ccc(F)c(Cl)c4)cc3)sc2c1` [AB00011625] displayed a 50% inhibitory concentration (IC50) of 0.111 µM.

Compound `COc1cc(C)c(S(=O)(=O)Nc2ccc(-c3nc4ccc(C)cc4s3)cc2)c(C)c1C` [AB00012207] gave a half-inhibitory concentration (IC50) of 0.155 µM.

Consider `COc1ccccc1C1CCN(C(=O)NCCc2ccccc2)CC1` [AB00013805], for which the concentration for half-maximal inhibition (IC50) is 0.067 µM. The same measure, in the same setting: to `C=C(C)CN(CC)C(=O)Nc1ccc(-c2ccccc2)cc1` [AB00022459] belongs 0.065 µM; to `COc1cccc(-c2nnc(-c3ccccc3NS(=O)(=O)c3ccc(NC(C)=O)cc3)o2)c1` [AB00027137], 0.13 µM; to `COc1ccc(-c2coc3cc(OC)cc(O)c3c2=O)cc1` [AB00052939], 1.73 µM. Consider `Nc1nc(-c2ccc(-c3ccccc3)cc2)cs1` [AB00074195], for which the IC50 is 0.122 µM. As to `COC(=O)c1sc2nc(-c3ccccc3)ccc2c1N` [AB00079098], the IC50 came to 0.067 µM. On the same count and under the same terms, to `Cc1ccc(-c2csc(Nc3ccccc3)n2)cc1` [AB00079697] belongs 0.142 µM. As to `O=C1/C(=C\c2ccco2)Sc2ccccc21` [AB00083422], half-maximal inhibition (IC50) was put at 3650 µM.

Compound `O=C1/C(=C\c2ccc(O)cc2)Sc2ccccc21` [AB00083765] displayed an IC50 of 3.72 µM. With `Clc1ccc(-c2nnc(-c3ccccc3Cl)o2)cc1` [AB00084000], it took 0.062 µM to reach half-maximal inhibition (IC50).

The compound `O=C(/C=C/Nc1cc(Cl)ccc1O)c1ccccc1` [AB00087011] came in with a concentration for half-maximal inhibition (IC50) of 0.213 µM. The same measure, in the same setting: to `Cc1ccc(/C=C2/SC(=S)N(CCC(=O)Nc3ccc(O)cc3)C2=O)cc1` [AB00089877] belongs 1310 µM; to `S=C(c1ccc(-c2ccc(Cl)c(Cl)c2)o1)N1CCOCC1` [AB00091724], 5.19 µM.

`S=C(c1ccc(-c2ccc(Cl)cc2)o1)N1CCOCC1` [AB00092070] gave an IC50 of 0.775 µM. `S=C(c1ccc(-c2cccc(Cl)c2)o1)N1CCOCC1` [AB00092117] gave a half-maximal inhibitory concentration (IC50) of 3.4 µM. Same read-out and setting: to `Oc1ccccc1C1NN=C(c2ccccc2)S1` (stereo not drawn) [AB00092734] belongs 0.382 µM. `Clc1ccc(C2NN=C(c3ccccc3)S2)cc1` (stereo not drawn) [AB00093093] gave a half-inhibitory concentration (IC50) of 4.06 µM. `Oc1ccc2ccccc2c1C1NN=C(c2ccccc2)S1` (stereo not drawn) [AB00093094]: half-maximal inhibition (IC50) required 0.788 µM. On the same count and under the same terms, to `COc1ccc(-c2noc(-c3cccc(OC)c3)n2)cc1` [AB00093467] belongs 0.082 µM. On to `COc1ccccc1-c1nc(-c2ccccc2Cl)no1` [AB00093511], for which the 50% inhibitory concentration (IC50) turned out to be 0.079 µM. The compound `COc1ccccc1-c1nc(-c2ccc(C)cc2)no1` [AB00093558] displayed an IC50 of 0.1 µM.

In turn, `Fc1ccc(-c2cn3ccsc3n2)cc1` [AB00093742] returned an IC50 of 0.382 µM. The same measure, in the same setting: to `Brc1cccc(-c2cn3ccsc3n2)c1` [AB00093745] belongs 0.251 µM; to `CC(C)(C)c1ccc(-c2csc(N)n2)cc1` [AB00095939], 0.133 µM. As to `O=c1[nH]c(/C=C/c2ccc(O)cc2)nc2ccccc12` [AB00097657], half-maximal inhibition (IC50) required 0.064 µM. As to `Cc1ccc(-c2csc(Nc3ccc(C(=O)O)cc3)n2)cc1C` [AB00097765], the IC50 turned out to be 0.062 µM. On the same count and under the same terms, the figure for `CCC(=O)NC(c1ccccc1Cl)c1ccc2cccnc2c1O` (stereo not drawn) [AB00100961] is 3.97 µM; for `CCC(=O)NC(c1ccc(C)cc1)c1ccc2cccnc2c1O` (stereo not drawn) [AB00101018] it is 3.17 µM; for `CCC(=O)NC(c1cccc([N+](=O)[O-])c1)c1ccc2cccnc2c1O` (stereo not drawn) [AB00101133] it is 3.7 µM.

Take `COc1ccc(-c2csc(Nc3ccc(N(C)C)cc3)n2)cc1` [AB00101290]: half-maximal inhibition (IC50) required 0.144 µM. The same measure, in the same setting: to `O=C(O)c1ccc(-c2nnc(-c3ccccc3Cl)o2)cc1` [AB00101507] belongs 0.337 µM. On the same count and under the same terms, to `Cc1ccccc1-c1cc(-c2ccccc2O)n[nH]1` [AB00101695] belongs 0.579 µM; to `O=C(/C=C\Nc1cc(Cl)ccc1O)c1ccc2c(c1)OCO2` [AB00101723], 0.213 µM. On the same count and under the same terms, to `COc1ccc(C(=O)/C=C(\C)Nc2ccccc2O)cc1` [AB00102118] belongs 0.235 µM. As to `O=C(Nc1ccc(F)cc1)N1CCc2ccccc21` [AB00105762], half-maximal inhibition (IC50) required 0.18 µM. For `O=C(CCN1C(=O)/C(=C\C=C\c2ccccc2)SC1=S)Nc1cc(Cl)ccc1O` [AB00120582], the 50% inhibitory concentration (IC50) came to 146 µM. In turn, `O=C(CCN1C(=O)/C(=C\C=C\c2ccccc2)SC1=S)Nc1ccc(C(=O)O)cc1` [AB00121550] showed a half-inhibitory concentration (IC50) of 0.545 µM. Compound `CN(Cc1cnc2nc(N)nc(N)c2c1)c1ccc(C(=O)N[C@@H](CCC(=O)O)C(=O)O)cc1` [AB00171904] gave a 50% inhibitory concentration (IC50) of 0.159 µM. On the same count and under the same terms, the figure for `CCOC(=O)CC[C@H](NC(=O)c1ccc(NCc2cnc3nc(N)nc(N)c3c2C)cc1)C(=O)OCC` [AB00174102] is 0.345 µM; for `COc1ccc(-c2cn3c4c(sc3n2)CCCC4)cc1` [AB00315863] it is 0.65 µM. The same measure, in the same setting: the figure for `Cc1nnc(SCC(=O)Nc2ccc(-c3nc4ccccc4s3)cc2)s1` [AB00317535] is 0.328 µM; for `COc1ccc(NC(=O)N2CCc3ccccc32)cc1` [AB00329861] it is 0.697 µM. Same read-out and setting: the figure for `Fc1ccc(-c2nc3n(n2)Cc2ccccc2-3)cc1` [AB00371839] is 0.125 µM. Compound `O=c1c(-c2ccc3c(c2)OCCO3)coc2cc(O)cc(O)c12` [AB00390364] displayed an IC50 of 22.7 µM. Still for that read-out and setting: to `c1ccc(CSCc2cn3ccsc3n2)cc1` [AB00421150] belongs 12.6 µM; to `Clc1c(CSc2nc3ccccc3o2)nc2sccn12` [AB00428616], 2.41 µM; to `CC(C)Oc1cc(O)c2c(=O)c(-c3ccc(O)cc3)coc2c1` [AB00431689], 4.52 µM.

Compound `Oc1ccccc1-c1cc(-c2ccc3c(c2)OCCO3)[nH]n1` [AB00440877] came in with an IC50 of 0.639 µM.

With `COc1cc(NCc2cnc3nc(N)nc(N)c3c2C)cc(C(F)(F)F)c1` [AB00443206], the concentration for half-maximal inhibition (IC50) came to 0.123 µM.

Take `COc1ccc(-c2cc(-c3ccccc3O)[nH]n2)cc1` [AB00461411]: the IC50 came to 0.968 µM. For the compound `Brc1ccc(-c2cn3ccccc3n2)s1` [AB00528862], the half-inhibitory concentration (IC50) is 0.094 µM. For `Cc1ccc(/C=C2\Sc3ccccc3C2=O)s1` [AB00534272], the IC50 was 5.98 µM. The compound `Cc1ccc2nc(-c3ccc(NC(=O)COC(=O)c4cncc(Br)c4)cc3)sc2c1` [AB00542926] gave an IC50 of 0.393 µM. The same measure, in the same setting: the figure for `COCCNc1nc(-c2cc3ccccc3o2)cs1` [AB00546194] is 1.4 µM; for `C=CCNc1nc(-c2cc3ccccc3o2)cs1` [AB00546606] it is 0.598 µM; for `Cc1ccc2nc(-c3ccc(NC(=O)CCN4C(=O)c5ccccc5C4=O)cc3)sc2c1` [AB00547004] it is 0.155 µM. Same read-out and setting: to `c1ccc2oc(-c3csc(N4CCOCC4)n3)cc2c1` [AB00613917] belongs 0.966 µM; to `CC(=O)CSc1nc2cc3c(cc2cc1C#N)OCCO3` [AB00614173], 0.104 µM; to `Cc1ccc(NC(=O)N2CCc3ccccc32)cc1C` [AB00616066], 0.361 µM. The compound `O=C(Nc1ccc2c(c1)OCCO2)Nc1ccc2c(c1)OCO2` [AB00616088] gave a half-maximal inhibitory concentration (IC50) of 0.114 µM.

Another test deals with I-kB and NF-kB p65. Kind of test: Effect on I-kB and NF-kB p65 in cytoplasm and nucleus (FIG. 14). In kind it is cell-based. Conditions: FIG. 14 A. The text has this:
A) I-kB was not affected by CMPD exposure while it was reduced by TNF. B) CMPDs increased cytoplasmic NF-kB p65. C) CMPDs increased nuclear localization of NF-kB p65. D) The sum of CMPD effects on P65 in the cytoplasm and in the nucleus.
Regarding TNF-α [reference compound], the I-kB entry is recorded as “reduced”.
